# Experimental data reported in patent US5223421A, “Identification of methionine Nα-acetyltransferase” (The General Hospital Corporation, priority 1990, dated 1993).
# “Also recorded” adds a separate entry of the source. Read-outs that look alike come from different tables or passages of the source. Ends that are not written are not given here.
# Legend:
# [1] = biological target: T1, AAA1 N^α -acetyltransferase (N^α -AT) (Saccharomyces cerevisiae, UniProt P07347+P12945); experiment: Relative activity of N^α -AT for N^α -acetylation of synthetic peptides; assay type: biochemical
# T1 sequence (P12945 2-854 limits assumed): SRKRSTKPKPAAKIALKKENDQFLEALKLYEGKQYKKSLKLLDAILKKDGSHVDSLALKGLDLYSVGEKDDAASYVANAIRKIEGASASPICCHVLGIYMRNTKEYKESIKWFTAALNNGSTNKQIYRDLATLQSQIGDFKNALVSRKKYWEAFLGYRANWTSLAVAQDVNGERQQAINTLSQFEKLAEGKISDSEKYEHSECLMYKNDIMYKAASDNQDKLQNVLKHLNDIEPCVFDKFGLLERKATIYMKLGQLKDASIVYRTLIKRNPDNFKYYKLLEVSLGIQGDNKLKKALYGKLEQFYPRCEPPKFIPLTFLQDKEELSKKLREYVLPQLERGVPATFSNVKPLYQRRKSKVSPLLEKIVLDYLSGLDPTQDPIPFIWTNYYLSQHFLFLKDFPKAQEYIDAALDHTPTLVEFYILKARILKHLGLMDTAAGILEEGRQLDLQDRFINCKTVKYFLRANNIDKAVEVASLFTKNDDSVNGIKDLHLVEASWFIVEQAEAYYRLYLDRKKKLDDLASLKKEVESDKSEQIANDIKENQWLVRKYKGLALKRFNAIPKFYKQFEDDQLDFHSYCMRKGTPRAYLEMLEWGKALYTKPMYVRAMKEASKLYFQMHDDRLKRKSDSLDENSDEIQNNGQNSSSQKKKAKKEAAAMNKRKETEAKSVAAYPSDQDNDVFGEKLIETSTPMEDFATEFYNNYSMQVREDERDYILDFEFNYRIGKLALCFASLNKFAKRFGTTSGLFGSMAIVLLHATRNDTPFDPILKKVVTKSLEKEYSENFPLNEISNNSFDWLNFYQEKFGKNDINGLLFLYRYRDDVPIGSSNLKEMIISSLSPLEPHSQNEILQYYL
# T1 sequence (P07347 1-238): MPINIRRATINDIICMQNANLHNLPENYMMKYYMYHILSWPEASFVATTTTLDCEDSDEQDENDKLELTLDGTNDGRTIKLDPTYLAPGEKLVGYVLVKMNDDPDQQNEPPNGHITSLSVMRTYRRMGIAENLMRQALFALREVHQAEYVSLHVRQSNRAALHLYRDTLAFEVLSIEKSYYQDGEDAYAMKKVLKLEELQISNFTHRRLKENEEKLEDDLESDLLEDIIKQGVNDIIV
# Protocol: (§1) N^α -acetylt[…] was determined as previously described [Lee et al., J. Biol. Chem. 263:14948-14955 (1988)]. Aliquots of the lysate or chromatographic fractions were added to 1.5 ml Eppendorf tubes containing a reaction mixture of 50 mM HEPES, pH 7.4, 150 mM KCl, 1 mM DTT, 25 μM [^3 H] acetyl coenzyme A (0.5 μCi) and 50 μM synthetic peptide with an adjusted final volume of 100 μl. The assay mixture was incubated at 30° C. for 30 min. The reaction was stopped by adding 17 μl of 0.5M acetic acid and chilled in an ice bath. The reaction samples were filtered through SP membrane discs (Cuno) (previously pre-swollen in 0.5M acetic acid), and then washed three times with 1 ml of 0.5M acetic acid on a Millipore 1225 sampling manifold. The partially dried membranes were placed in scintillation cocktail and counted with a Beckman LS 3801 scintillation counter. One unit of activity was defined as the amount of enzyme able to transfer 1 pmol of [^3 H] acetyl group from [^3 H] acetyl coenzyme A to synthetic peptide per min under standard enzyme assay conditions defined above.
# (§2) In order to compare the relative specificity and activity of the methionine N^α -acetylt[…] (M-N^α -AT) of the present invention with the specificity and activity of the AAA1 N^α -acetyltransferase (N^α -AT) of Lee, F.-J. S., et al., J. Bacteriol. 171, (1989), U.S. Patent Application of John A. Smith, and Fang-Jen S. Lee, filed Oct. 25, 1989, entitled "ISOLATION OF STRAINS OF SAC[…] ALTERED N^α -ACETYLT[…]" (which references have been incorporated herein by reference) synthetic peptides were prepared. These peptides were assessed for their ability to serve as substrates for the two enzymes. In Table 6, the effect of the amino terminal amino acid on activity is investigated; in Table 7, the effect of the penultimate amino terminal amino acid on activity is investigated.
# [2] = test system: methionine N^α -acetyltransferase from S. cerevisiae; assay type: biochemical, Saccharomyces cerevisiae; conditions: for effect of ion or salt on M-N^α AT activity: concentration not given; for Enzyme Activity (%): 5 min room temperature, 50 mM HEPES pH 7.4, 1 mM DTT, substrate PAI (N=3); for effect of divalent cation on M-N^α AT activity: 1 mM
# Protocol: N^α -acetyltransferase activity was determined as previously described [Lee et al., J. Biol. Chem. 263:14948-14955 (1988)]. Aliquots of the lysate or chromatographic fractions were added to 1.5 ml Eppendorf tubes containing a reaction mixture of 50 mM HEPES, pH 7.4, 150 mM KCl, 1 mM DTT, 25 μM [^3 H] acetyl coenzyme A (0.5 μCi) and 50 μM synthetic peptide with an adjusted final volume of 100 μl. The assay mixture was incubated at 30° C. for 30 min. The reaction was stopped by adding 17 μl of 0.5M acetic acid and chilled in an ice bath. The reaction samples were filtered through SP membrane discs (Cuno) (previously pre-swollen in 0.5M acetic acid), and then washed three times with 1 ml of 0.5M acetic acid on a Millipore 1225 sampling manifold. The partially dried membranes were placed in scintillation cocktail and counted with a Beckman LS 3801 scintillation counter.
# Yeast methionine acetyltransferase was incubated in the presence of various divalent cations at a room temperature for 5 min in 50 mM HEPES, pH 7.4 containing 1 mM DTT. The enzyme activity was determined under standard assay conditions using PAI (N=3), as described above.
# [3] = test system: methionine N^α -acetyltransferase (M-N^α -AT); experiment: Relative activity of M-N^α -AT for N^α -acetylation of synthetic peptides; assay type: biochemical, Saccharomyces cerevisiae; design: tested at 50 µM; conditions: Table 7, influence of the penultimate amino terminal residue
# Protocol: as §1, §2
# [4] = test system: methionine N^α -acetyltransferase from S. cerevisiae; experiment: Effect of protein modification reagents on enzyme activity; assay type: biochemical, Saccharomyces cerevisiae; conditions: for Enzyme Activity (%): 30° C. 15 min, then dialyzed, substrate PAI (N=3)
# Protocol: N^α -acetyltransferase activity was determined as previously described [Lee et al., J. Biol. Chem. 263:14948-14955 (1988)]. Aliquots of the lysate or chromatographic fractions were added to 1.5 ml Eppendorf tubes containing a reaction mixture of 50 mM HEPES, pH 7.4, 150 mM KCl, 1 mM DTT, 25 μM [^3 H] acetyl coenzyme A (0.5 μCi) and 50 μM synthetic peptide with an adjusted final volume of 100 μl. The assay mixture was incubated at 30° C. for 30 min. The reaction was stopped by adding 17 μl of 0.5M acetic acid and chilled in an ice bath. The reaction samples were filtered through SP membrane discs (Cuno) (previously pre-swollen in 0.5M acetic acid), and then washed three times with 1 ml of 0.5M acetic acid on a Millipore 1225 sampling manifold. The partially dried membranes were placed in scintillation cocktail and counted with a Beckman LS 3801 scintillation counter. One unit of activity was defined as the amount of enzyme able to transfer 1 pmol of [^3 H] acetyl group from [^3 H] acetyl coenzyme A to synthetic peptide per min under standard enzyme assay conditions defined above.
# In order to determine the possible catalytic role for different types of amino acid residues in the enzyme, various chemical modifications were carried out (Table 10). Yeast methionine acetyltransferase was incubated with each reagent at 30° C. for 15 min, dialyzed against 50 mM HEPES, pH 7.4, 150 mM, 1 mM DTT at 4° C. for 3 to 4 hr. The enzyme activity was determined under standard assay conditions using PAI (N=3), assayed as described above.
# [5] = Table 6, influence of the amino terminal residue
# [6] = Table 7, influence of the penultimate amino terminal residue
molecule,measurement,setting,value
TIPETQKGVIFYESHGKLEYKDIP (TIPETQKGVIFYESHGKLEYKDIP),Activity (%) (mean activity ± S.D.) N^a -AT,[1]; [5],103 ± 5%
PIPETQKGVIFYESHGKLEYKDIP (PIPETQKGVIFYESHGKLEYKDIP),Activity (%) (mean activity ± S.D.) N^a -AT,[1]; [5],70 ± 4%
[Cl-].[Cl-].[Co+2] [CoCl2],effect of ion or salt on M-N^α AT activity,[2],pronounced and concentration-dependent inhibition
same,Enzyme Activity (%),[2]; salt 0.01 mM,106%
same,Enzyme Activity (%),[2]; salt 0.1 mM,95%
same,Enzyme Activity (%),[2]; salt 1 mM,38%
VIPETQKGVIFYESHGKLEYKDIP (VIPETQKGVIFYESHGKLEYKDIP),Activity (%) (mean activity ± S.D.) N^a -AT,[1]; [5],69 ± 4%
SDPETQKGVIFYESHGKLEYKDIP (SDPETQKGVIFYESHGKLEYKDIP),Activity (%) (mean activity ± S.D.) N^a -AT,[1]; [6],171 ± 9%
same,Activity (%) (mean activity ± S.D.) M-N^a -AT,[3],0%
SFPETQKGVIFYESHGKLEYKDIP (SFPETQKGVIFYESHGKLEYKDIP),Activity (%) (mean activity ± S.D.) N^a -AT,[1]; [6],118 ± 6%
same,Activity (%) (mean activity ± S.D.) M-N^a -AT,[3],0%
[Ca+2].[Cl-].[Cl-] [CaCl2],effect of divalent cation on M-N^α AT activity,[2],had no effect
same,effect of ion or salt on M-N^α AT activity,[2],did not affect enzyme activity
same,Enzyme Activity (%),[2]; salt 1 mM,102%
SMPETQKGVIFYESHGKLEYKDIP (SMPETQKGVIFYESHGKLEYKDIP),Activity (%) (mean activity ± S.D.) N^a -AT,[1]; [6],140 ± 7%
same,Activity (%) (mean activity ± S.D.) M-N^a -AT,[3],0%
HIPETQKGVIFYESHGKLEYKDIP (HIPETQKGVIFYESHGKLEYKDIP; also: tritium label),Activity (%) (mean activity ± S.D.) N^a -AT,[1]; [5],19 ± 2%
[Mg+2] [Mg^2+],effect of divalent cation on M-N^α AT activity,[2],had no effect
"O=C1CCC(=O)N1Br [NBS, N-bromosuccinimide]",effect of reagent on M-N^α AT activity,[4]; 0.5 mM,partially inactivated the enzyme
same,effect of reagent on M-N^α AT activity,[4]; 5 mM,completely inactivated the enzyme
same,Enzyme Activity (%),[4]; reagent 0.5 mM,30%
same,Enzyme Activity (%),[4]; reagent 5.0 mM,0%
"CCOC(=O)OC(=O)OCC [DEPC, diethyl pyrocarbonate]",effect of reagent on M-N^α AT activity,[4]; concentration not given,nearly complete inactivation
same,Enzyme Activity (%),[4]; reagent 0.05 mM,59%
same,Enzyme Activity (%),[4]; reagent 0.5 mM,0%
[Cl][Cd][Cl] [CdCl2],effect of ion or salt on M-N^α AT activity,[2]; listed as Cd^2+,pronounced and concentration-dependent inhibition; also recorded: also inhibited
same,Enzyme Activity (%),[2]; salt 0.01 mM,103%
same,Enzyme Activity (%),[2]; salt 0.1 mM,72%
same,Enzyme Activity (%),[2]; salt 1 mM,0%
YIPETQKGVIFYESHGKLEYKDIP (YIPETQKGVIFYESHGKLEYKDIP),Activity (%) (mean activity ± S.D.) N^a -AT,[1]; [5],20 ± 2%
CC(=O)n1ccnc1 [N-acetylimidazole],effect of reagent on M-N^α AT activity,[4]; concentration not given,without effect
same,Enzyme Activity (%),[4]; reagent 1.0 mM,100%
same,Enzyme Activity (%),[4]; reagent 10.0 mM,93%
NO [hydroxylamine],effect of reagent on M-N^α AT activity,[4]; concentration not given,slowly inactivated the enzyme
same,original enzyme activity recovered after diethyl pyrocarbonate inactivation,"[4]; incubation 6 hr at room temperature with […] hydroxylamine, 250000 µM",~ 50%
O=S(=O)([O-])[O-].[Mg+2] [MgSO4],effect of ion or salt on M-N^α AT activity,[2],did not affect enzyme activity
same,Enzyme Activity (%),[2]; salt 0.1 mM,102%
same,Enzyme Activity (%),[2]; salt 1 mM,97%
"C[S+](C)Cc1cc([N+](=O)[O-])ccc1O.[Br-] [HNBS(CH3)2 -Br, dimethyl-(2-hydroxy-5-nitrobenzyl)sulfonium bromide]",effect of reagent on M-N^α AT activity,[4]; concentration not given,partially inactivated the enzyme
same,Enzyme Activity (%),[4]; reagent 1.0 mM,93%
same,Enzyme Activity (%),[4]; reagent 10.0 mM,62%
[Cl-].[Cl-].[Mg+2] [MgCl2],effect of ion or salt on M-N^α AT activity,[2],did not affect enzyme activity
same,Enzyme Activity (%),[2]; salt 0.1 mM,105%
same,Enzyme Activity (%),[2]; salt 1 mM,98%
MIPETQKGVIFYESHGKLEYKDIP (MIPETQKGVIFYESHGKLEYKDIP),Activity (%) (mean activity ± S.D.) N^a -AT,[1]; [5],15 ± 2%
[Cl][Mn][Cl] [MnCl2],effect of divalent cation on M-N^α AT activity,[2],had no effect
same,effect of ion or salt on M-N^α AT activity,[2],did not affect enzyme activity
same,Enzyme Activity (%),[2]; salt 0.1 mM,103%
same,Enzyme Activity (%),[2]; salt 1 mM,98%
O=S(=O)([O-])[O-].[Fe+2] [FeSO4],effect of ion or salt on M-N^α AT activity,[2],pronounced and concentration-dependent inhibition
same,Enzyme Activity (%),[2]; salt 0.01 mM,108%
same,Enzyme Activity (%),[2]; salt 0.1 mM,93%
same,Enzyme Activity (%),[2]; salt 1 mM,40%
FIPETQKGVIFYESHGKLEYKDIP (FIPETQKGVIFYESHGKLEYKDIP),Activity (%) (mean activity ± S.D.) N^a -AT,[1]; [5],9 ± 2%
